Assay results: the NIST ThermoML archive (doi:10.1016/j.jct.2014.01.002)

Assay: excess molar enthalpy (molar enthalpy of mixing); xn = mol fraction of the nth substance listed
Conditions: 298.15 K, 99 kPa, Liquid, Calvet calorimetry

C1CCCCC1 [cyclohexane] + CCCCCC
Conditions	excess molar enthalpy [kcal/mol]
x1 = 0.0524	0.00813
x1 = 0.1136	0.017
x1 = 0.1603	0.0232
x1 = 0.2014	0.0282
x1 = 0.2485	0.0335
x1 = 0.3022	0.0392
x1 = 0.3647	0.0442
x1 = 0.4379	0.049
x1 = 0.4819	0.0509
x1 = 0.5388	0.0526
x1 = 0.5621	0.0528
x1 = 0.6166	0.0526
x1 = 0.6576	0.0516
x1 = 0.7177	0.0483
x1 = 0.7702	0.0435
x1 = 0.8085	0.0392
x1 = 0.8623	0.0318
x1 = 0.9276	0.0191

CCCCCO [pentan-1-ol] + CCCCCC
Conditions	excess molar enthalpy [kcal/mol]
x1 = 0.0241	0.0686
x1 = 0.0501	0.0848
x1 = 0.0573	0.0887
x1 = 0.1085	0.103
x1 = 0.1504	0.112
x1 = 0.1912	0.121
x1 = 0.2341	0.127
x1 = 0.2905	0.129
x1 = 0.3433	0.13
x1 = 0.3934	0.128
x1 = 0.4452	0.125
x1 = 0.5771	0.0982
x1 = 0.5794	0.0985
x1 = 0.6531	0.0798
x1 = 0.6979	0.0672
x1 = 0.7463	0.0535
x1 = 0.803	0.0368
x1 = 0.9021	0.0151
